The results in this text go back to ChEMBL document CHEMBL5096217, “Design, synthesis and biological evaluation of novel 4-aminopiperidine derivatives as SMO/ERK dual inhibitors” (Bioorg Med Chem, 2022).

pIC50: −log10 of the molar value.

For assay [1], the target named is T1, Mitogen-activated protein kinase 1 (Homo sapiens, UniProt P28482). Put plainly: Inhibition of ERK2 (unknown origin) using kinase substrate 8 incubated for 40 mins in presence of ATP by mobility shift assay.
The target in assay [2] is Protein smoothened (Mus musculus) (UniProt P56726). Kind of assay: Inhibition of SMO in mouse 3T3/HH FlashII-7 cells at 100 nM incubated for 36 hrs in presence of SHH by Gli-luciferase reporter assay. It is filed as cell-based.
Assay [3] deals with T1, Mitogen-activated protein kinase 1. Put plainly: Inhibition of ERK2 (unknown origin) using kinase substrate 8 at 100 nM incubated for 40 mins in presence of ATP by mobility shift assay.
The target in another assay is Protein smoothened (Mus musculus, UniProt P56726). Kind of assay: Inhibition of SMO in mouse 3T3/HH FlashII-7 cells incubated for 36 hrs in presence of SHH by Gli-luciferase reporter assay. The format is cell-based.
The nature of assay [4]: Antiproliferative activity against human RBE cells overexpressing Hh/ERK pathway assessed as inhibition of cell growth incubated for 96 hrs by CCK8 assay relative to SCH772984. It is filed as functional. (Tetrazolium assays rely on reduction of a dye to a coloured formazan, in cell work by metabolically active cells.)
Assay [5] can be described thus: Antiproliferative activity against human RBE cells overexpressing Hh/ERK pathway assessed as inhibition of cell growth incubated for 96 hrs by CCK8 assay. The format is functional, cell-based.

Protein smoothened (Mus musculus), sequence (P56726 whole entry): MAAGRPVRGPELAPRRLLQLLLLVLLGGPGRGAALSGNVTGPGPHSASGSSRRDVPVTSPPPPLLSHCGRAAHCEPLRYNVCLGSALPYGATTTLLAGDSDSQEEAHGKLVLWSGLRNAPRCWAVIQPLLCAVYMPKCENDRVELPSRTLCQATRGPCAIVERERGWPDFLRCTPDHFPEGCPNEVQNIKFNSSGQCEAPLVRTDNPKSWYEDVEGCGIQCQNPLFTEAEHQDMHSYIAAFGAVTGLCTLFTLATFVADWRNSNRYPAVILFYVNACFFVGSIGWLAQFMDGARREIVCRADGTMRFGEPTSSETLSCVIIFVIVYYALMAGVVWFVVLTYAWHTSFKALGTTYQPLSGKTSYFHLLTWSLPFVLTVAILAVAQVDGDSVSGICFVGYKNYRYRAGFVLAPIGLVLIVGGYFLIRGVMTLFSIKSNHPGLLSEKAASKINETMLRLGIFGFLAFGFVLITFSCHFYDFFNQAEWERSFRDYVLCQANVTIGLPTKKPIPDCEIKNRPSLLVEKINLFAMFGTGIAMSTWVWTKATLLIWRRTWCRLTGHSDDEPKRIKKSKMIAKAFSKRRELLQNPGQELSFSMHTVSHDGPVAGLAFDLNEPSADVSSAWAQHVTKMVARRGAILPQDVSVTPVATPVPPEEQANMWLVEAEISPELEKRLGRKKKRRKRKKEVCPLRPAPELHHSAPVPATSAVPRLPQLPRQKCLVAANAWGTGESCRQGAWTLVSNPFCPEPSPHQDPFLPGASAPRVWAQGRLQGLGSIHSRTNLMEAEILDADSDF
Protein smoothened, sequence (P56726 whole entry): as above
T1 sequence (P28482 whole entry): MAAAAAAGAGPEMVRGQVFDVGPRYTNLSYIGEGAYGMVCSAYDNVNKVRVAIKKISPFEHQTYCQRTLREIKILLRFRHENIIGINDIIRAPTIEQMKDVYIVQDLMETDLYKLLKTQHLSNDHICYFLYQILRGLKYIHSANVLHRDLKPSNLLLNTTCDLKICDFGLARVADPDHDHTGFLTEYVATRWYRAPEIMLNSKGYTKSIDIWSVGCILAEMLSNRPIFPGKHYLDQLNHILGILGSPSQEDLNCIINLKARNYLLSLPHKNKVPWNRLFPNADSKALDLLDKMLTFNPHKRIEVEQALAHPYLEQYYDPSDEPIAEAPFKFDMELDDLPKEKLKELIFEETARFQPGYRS

As to `Cc1c(-c2ccnn2C)nnc(N2CCC(NC(=O)c3ccc(NC(=O)c4ccnc(NC5CCOCC5)n4)cc3C(F)(F)F)CC2)c1C`, the pIC50 (as a rule, the IC50 on a negative log10 scale, so that one unit is a factor of ten) in assay [1] is 5.48. Also, the inhibition (usually the drop in the measured response relative to a control, in per cent) in assay [2] was 68.2%.
Take `Cc1c(-c2ccnn2C)nnc(N2CCC(NC(=O)Nc3ccc(Oc4nc(Nc5ccn(C)n5)ncc4Cl)cc3)CC2)c1C`: the inhibition in assay [3] is 6.6%.
Same read-out and setting: the figure for `Cc1c(-c2ccnn2C)nnc(N2CCC(NC(=O)Nc3ccc(Oc4nc(NC(C)C)ncc4Cl)cc3)CC2)c1C` is 5.6%.
With `Cc1cnc(NC2CCOCC2)nc1Oc1ccc(NC(=O)NC2CCN(c3nnc(-c4ccnn4C)c(C)c3C)CC2)cc1`, on Protein smoothened, the pIC50 is 6.82. Also, in assay [3], the inhibition stood at 60.7%.
In the same order, the values of `Cc1c(-c2ccnn2C)nnc(N2CCC(NC(=O)Nc3ccc(Oc4nc(NC5CCOCC5)ncc4C(F)(F)F)cc3)CC2)c1C` are 6.72 and 85%.
For `Cc1c(-c2ccnn2C)nnc(N2CCC(NC(=O)Nc3ccc(Sc4nc(NC5CCOCC5)ncc4C(F)(F)F)cc3)CC2)c1C`, the “fold change (FC)” value in assay [4] is recorded as 0.89. The pIC50 at Protein smoothened was 6.81; in assay [5], 5.84. Besides, in assay [3], the inhibition is 84.2%.
`Cn1cc(-c2ccc(N3CCC(NC(=O)Nc4ccc(Oc5nc(NC6CCOCC6)ncc5Cl)cc4)CC3)nn2)cn1`: the negative-log IC50 (pIC50) in assay [1] was 6.79; at Protein smoothened, < 6.00.
`Cc1c(-c2ccnn2C)nnc(N2CCC(NC(=O)Nc3ccc(Nc4nc(NC5CCOCC5)ncc4Cl)cc3)CC2)c1C`: the pIC50 on Protein smoothened was 7.19. Further, in assay [3], the inhibition was determined as 36.9%.
Consider `O=C(Nc1ccc2[nH]nc(-c3ccncc3)c2c1)[C@@H]1CCN(CC(=O)N2CCN(c3ccc(-c4ncccn4)cc3)CC2)C1`, for which, in assay [5], the pIC50 was 5.79.
With `Cc1c(-c2ccnn2C)nnc(N2CCC(NC(=O)Nc3ccc(Oc4nc(Nc5ccnn5C)ncc4Cl)cc3)CC2)c1C`, in assay [3], the inhibition was 1.1%.
`Cc1c(-c2ccnn2C)nnc(N2CCC(NC(=O)Nc3ccc(Oc4ccnc(NC5CCOCC5)n4)cc3)CC2)c1C`: the pIC50 in assay [1] was 5.88. Besides, the inhibition in assay [2] was 90.4%.
For the compound `Cc1c(-c2ccnn2C)nnc(N2CCC(NC(=O)Nc3ccc(Oc4nc(NC5CCOCC5)ncc4Cl)cc3)CC2)c1C`, the “fold change (FC)” value in assay [4] was 7.59. In addition, the inhibition was found to be 89.9% in assay [2] and 80.9% in assay [3]. Moreover, in assay [5], the pIC50 is 4.91.
Turning to `Cn1nccc1-c1ccc(N2CCC(NC(=O)Nc3ccc(Oc4nc(NC5CCOCC5)ncc4Cl)cc3)CC2)nn1`, the inhibition in assay [2] was determined as 68.5%; in assay [3], 46.4%.
On to `Cc1c(-c2ccnn2C)nnc(N2CCC(NC(=O)Nc3ccc(Sc4nc(NC5CCOCC5)ncc4Cl)cc3)CC2)c1C`, for which the “fold change (FC)” value in assay [4] amounted to 1.33. Besides, the pIC50 at Protein smoothened was 7.75; in assay [5], 5.66. Also, the inhibition in assay [3] is 91.2%.
As for `Cc1c(-c2cnn(C)c2)nnc(N2CCC(NC(=O)Nc3ccc(Oc4nc(NC5CCOCC5)ncc4Cl)cc3)CC2)c1C`, the pIC50 in assay [1] is 7.39; on Protein smoothened it was 6.39.
On to `Cc1c(-c2ccnn2C)nnc(N2CCC(NC(=O)Nc3ccc(Oc4nc(Nc5cnn(C)c5)ncc4Cl)cc3)CC2)c1C`, for which the pIC50 at Protein smoothened was 7.75. For the same compound, the inhibition in assay [3] amounted to 46%.
Consider `CN(C(=O)c1ccc(F)cc1C(F)(F)F)C1CCN(c2nnc(-c3ccnn3C)c3ccccc23)CC1` [TALADEGIB], for which the pIC50 is 8.93 at Protein smoothened and < 4.30 in assay [5].
